Like-named read-outs stand apart in the source and are kept apart here.
Columns and labels:
[1] = target: PFKFB3 (Homo sapiens (Human), UniProt Q16875); experiment: PFKFB3 kinase activity, Method B (ADP-Glo Kinase Assay); format: biochemical
Excerpt: The PFKFB3 (placenta form) and PFKFB4 were produced and purified to homogeneity from E. coli at Biovitrum and at Sprint Bioscience. All other reagents were purchased from commercial sources. Two independent methods have been used for determination of the kinase activity of PFKFB3 (Method A and Method B). Method B has been used for determination of the kinase activity of PFKFB4.
Method B: The kinase activity of the bi-functional enzyme is readily quantified based on the production of ADP and F-2,6-P2 from ATP and F6P. The ADP is detected with a kit, ADP-Glo™ Kinase Assay^(a-e), from Promega. The assay is a luminescent ADP detection assay that measures kinase activity by quantifying the amount of ADP produced during the kinase reaction. The assay is performed in two steps; first, after the kinase reaction, an equal volume of ADP-Glo™ Reagent is added to terminate the kinase reaction and deplete the remaining ATP. Second, the Kinase Detection Reagent is added to simultaneously convert ADP to ATP and allow the newly synthesized ATP to be measured using a luciferase/luciferine reaction. The light generated is measured using a luminescence counter (1450 MicroBeta TriLux).
The assay was performed in white 384-well microtiter plates (OptiPlate, 6007299, PerkinElmer) by consecutive additions of 0.1 μL of a test compound solution (serial diluted in DMSO from compound DMSO stock solution and dispensed by acoustic dispensing from UV-star 384-well plate 7360153, VWR), 5 μL of enzyme solution and 5 μL of a substrate (fructose-6-phosphate (F6P) and adenosine-5′-triphosphate (ATP)) containing solution. […] Four reference dose response curves, one of them being the QC compound, were included in row O1-2, P1-2, and serial diluted as the test compounds. The final concentrations of all reagents in a total assay volume of 10.1 μL per well were: • 50 mM Tris-HCl at pH 8.0 • 10 mM MgCl2 • 5 mM Na2HPO4 at pH 8.0 • 81.48 nM PFKFB3 or 145 nM PFKFB4 • 8 μM ATP • 100 μM F6P (acid treated and then neutralized to remove any contaminating F-2,6-P2; see Van Schaftingen, 1984) • 0.005% Tween-20 • 1 mM dithiothreitol (DTT) • A test compound at various concentrations or controls (final DMSO concentration 0.99%)
Enzyme, compounds and controls were pre-incubated at room temperature for 15 min before the addition of substrate solution. The enzymatic reaction was allowed to proceed for 20 min (PFKFB3) or 40 min (PFKFB4) at room temperature. The reaction was terminated by the addition of 10 μL of ADP-Glo™ Reagent to all wells and the plate was incubated for 40 min at room temperature. After addition of 20 μL Kinase Detection Reagent to all wells the plate was incubated for 30 min at room temperature, followed by measurement in 1450 MicroBeta TriLux. All plates were centrifuged after each addition (room temperature, short spin, 500 RPM, Megafuge 1.0 Heraeus Instruments).
The inhibitory potency or IC50 values of test compounds on the kinase activity of PFKFB3 or PFKFB4 were calculated using a four-parameter model (model 205) in XLfit (IDBS ActivityBase XE Runner).

[2] = tested on: NUGC3 gastric tumor cell line; experiment: Inhibition of cancer cell proliferation (Sulphorhodamine B total cellular protein); format: cell-based, human; conditions: added at 0 h and again at 48 h, total of 120 h, FIG. 1
Protocol: To assess the antiproliferative response elicited by the compounds of the present invention in different tumour cell lines, total cellular protein in samples was quantified using the Sulphorhodamine B kit, TOX6, (Sigma-Aldrich).
Cells from selected tumour cell lines were cultured at 37° C., 5% CO2, normoxia, in DMEM/F12 medium +10% FBS. Cells were plated at a density of 6-12 000 cells/well, depending on cell-line specific size and growth characteristics, and allowed to attach overnight.
Culture media supernatants were then removed and replaced with either fresh medium or with compounds of the present invention diluted in cell culture medium to indicated concentrations, and to a maximal DMSO concentration of 0.1%. All treatments were in quadruplicate. After indicated incubation times, samples were washed with PBS and the total cellular protein in each sample was quantitated after precipitation with TCA according to the manufacturer's instructions. […] After air drying, bound dye was solubilized in 200 μL 10 mM Tris base, and the absorbance of dye was measured at a wavelength of 565 nm. To quantify growth, samples were collected also at t=0 h, and the resulting absorbance was set to 100%.
In brief, the Example 74 was added at the indicated concentrations at 0 h and again at 48 h. After a total of 120 h, the measured effect on cancer cell proliferation was quantified as described above.

[3] = tested on: NUGC-3 cells; experiment: Quantification of F-2,6-P2 in NUGC-3 cells; format: cell-based; conditions: Homo sapiens, read-out: IC50 based on quantification of F-2,6-P2
Excerpt: (§1) The relative kinase (formation) and phosphatase (degradation) activities of the bi-functional enzymes PFKFB3 and PFKFB4 control the intracellular levels of the regulator F-2,6-P2, which acts as an allosteric activator of glycolysis. The levels of F-2,6-P2 have been determined in three different cancer cell lines (MCF-7, PANC-1 and NUGC-3) using the van Shaftingen assay. The assay protocols described under “Methods for measurement of enzymatic activity of PFKFB3 and PFKFB4, Method A” have been adapted for the measurement of the inhibitory effect of compounds on the kinase activity of the various isoforms of the bifunctional enzyme (endogenously expressed) in the different cell lines. The modifications are described in the protocol below. All reagents were purchased from commercial sources or prepared inhouse.
Cell Line C (NUGC-3, Human Gastric Cancer Cell Line)
Cells were seeded at a concentration of 350 000 cells/mL in 100 μL growth medium (35 000 cells/well) […]
(§2) The amount of F-2,6-P2 was quantified based on the coupled enzymatic reaction described by Van Schaftingen. If necessary the samples were further diluted in 20 mM NaOH before quantification. Plates stored at −20° C. were thawed and the F-2,6-P2 quantification was initiated by transferring 40 μL from each well of the NUNC plate to the corresponding position in a trans-parent 96-well SpectraPlate-MB (6005649, PerkinElmer). […]

[4] = tested on: PANC-1 cells; experiment: Quantification of F-2,6-P2 in PANC-1 cells; format: cell-based; conditions: Homo sapiens, PANC-1; read-out: IC50 based on quantification of F-2,6-P2
Excerpt: as §1
Cell Line B (PANC-1, Human Pancreatic Carcinoma Cell Line)
• Cells: PANC-1 (ATCC-CRL-1469). Lot. no: 58564651. • Growth medium: Dulbecco's Modified Eagle's Medium, DMEM, ATCC-30-2002 10% FBS, Invitrogen, 10106-169
Cells were seeded at a concentration of 250 000 cells/mL in 100 μL growth medium (25 000 cells/well)
Starvation medium: DMEM/F12 without phenol red and glucose free, SVA, 991373 0.25% FBS, Invitrogen, 10106-169
Induction medium: DMEM/F12 without phenol red and glucose free, SVA, 991373 0.25% FBS, Invitrogen, 10106-169 (same as starvation medium)
Cells were seeded in 96-well Corning Costar tissue culture plates (CLS3595, Sigma-Aldrich) using the concentrations specified above for the three different cell lines A-C and incubated over night at 37° C. and 5% CO2. Row A was left empty. Next day the growth medium was discarded and replaced with 100 μL starvation medium. The plates were incubated for 18 h at 37° C. and 5% CO2. After 18 h of starvation the cells were induced with 100 μL compound or control solutions. Compounds were either tested in two concentrations (50 μM and 10 μM) or in dose response curves starting from 50 μM and the final DMSO concentration in assay plates was 0.5%. Also a dose response curve of a reference inhibitor was included in row H on each plate. All compounds were tested in duplicate plates. Compounds (in 96 well CLS 3365, Sigma-Aldrich) were serial diluted in DMSO from 10 mM compound DMSO stock solutions with Janus (automated liquid handling workstation from PerkinElmer). 5 μL were transferred to a Greiner deep well plate (736-0155, VWR) with 495 μL starvation medium. The final start concentration of compounds in the dilution plate was 100 μM, 1% DMSO. For compounds tested as single points, 10 mM compound solutions were diluted five fold in DMSO to 2 mM, followed by the transfer of 5 μL to separate dilution plates with 495 μL starvation medium. The final concentration of compounds in these dilution plates were 100 or 20 μM, respectively, and final concentration of DMSO was 1%. The plates were incubated at 37° C. and 5% CO2 for 1 h, followed by the addition of 10 μL 20 mM D-glucose in starvation medium. Controls, with and without 1 mM glucose, were included in row B. The final assay volume was 210 μL per well. After 2 h of incubation at 37° C. and 5% CO2, supernatants were discarded and the cells were lysed by the addition of 25 μL 250 mM NaOH. The plates were incubated at 37° C. and 5% CO2 for 5 min followed by an addition of 75 μL MilliQ dH2O. The supernatants were further diluted with 210 μL MilliQ dH2O to a final concentration of 20 mM NaOH. 200 μL were transferred to NUNC 96-well plates (7322661, VWR) and the plates were sealed and stored at −20° C. until analysis.
as §2

[5] = tested on: MCF-7 cells; experiment: Quantification of F-2,6-P2 in MCF-7 cells; format: cell-based; conditions: Homo sapiens
Excerpt: as §1
Cell Line A (MCF-7, Human Breast Adenocarcinoma Cell Line)
• Cells: MCF-7(ATCC-HBT22). Lot. no: 58469417. • Growth Medium: • Eagle's Minimum Essential Medium (EMEM), Sigma-Aldrich #M5650, 500 ml • 10% FBS, Invitrogen, 10106-169 • 5 mL 200 mM L-glutamine, Invitrogen 25030024 • 5 mL 100 mM Sodium Pyruvate, Invitrogen 11360039 • 0.5 mL 10 mg/ml Bovine Insulin, Sigma-Aldrich 10516 […]
The amount of F-2,6-P2 was quantified based on the coupled enzymatic reaction described by Van Schaftingen. If necessary the samples were further diluted in 20 mM NaOH before quantification. […]

Chain of PFKFB3 (Q16875 whole entry): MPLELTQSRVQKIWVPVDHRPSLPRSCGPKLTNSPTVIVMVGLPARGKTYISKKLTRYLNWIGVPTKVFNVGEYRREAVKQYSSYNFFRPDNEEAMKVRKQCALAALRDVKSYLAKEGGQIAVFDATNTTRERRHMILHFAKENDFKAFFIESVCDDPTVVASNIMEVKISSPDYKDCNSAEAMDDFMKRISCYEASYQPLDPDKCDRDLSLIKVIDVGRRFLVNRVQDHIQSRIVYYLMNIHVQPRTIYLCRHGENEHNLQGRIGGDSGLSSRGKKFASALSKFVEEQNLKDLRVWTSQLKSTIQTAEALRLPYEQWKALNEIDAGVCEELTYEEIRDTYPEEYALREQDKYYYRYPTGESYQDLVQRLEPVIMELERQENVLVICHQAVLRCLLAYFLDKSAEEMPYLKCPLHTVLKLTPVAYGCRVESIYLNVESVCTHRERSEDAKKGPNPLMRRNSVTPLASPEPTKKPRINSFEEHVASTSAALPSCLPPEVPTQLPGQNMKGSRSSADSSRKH

Compound | IC50 [1] | also measured
O=S(=O)(Nc1cccc(-c2nnn[nH]2)c1)c1ccc(-c2cc(F)cc(F)c2)s1 [Example 23, 5-(3,5-Difluorophenyl)-N-[3-(1H-tetrazol-5-yl)phenyl]thiophene-2-sulfonamide] | 620 nM | 
CSc1nccc(-c2ccc(S(=O)(=O)Nc3cccc(C(=O)O)c3)s2)n1 [Example 61, 3-[[5-(2-Methylsulfanylpyrimidin-4-yl)-2-thienyl]sulfonylamino]benzoic acid] | 2240 nM | 
O=S(=O)(Nc1cccc(-c2nnn[nH]2)c1)c1ccc(Cl)c2nonc12 [Example 73, 7-Chloro-N-[3-(1H-tetrazol-5-yl)phenyl]-2,1,3-benzoxadiazole-4-sulfonamide] | 570 nM | 
COC(=O)c1cccc(NS(=O)(=O)c2sc3ccc(Cl)cc3c2C)c1 [Example 74, Methyl 3-{[(5-chloro-3-methyl-1-benzothien-2-yl)sulfonyl]amino}benzoate] |  | effect on cell proliferation [2]: growth-inhibitory effect; IC50 [3]: 4000 nM; IC50 [4]: 3700 nM
Cc1c(S(=O)(=O)Nc2cccc(-c3cnco3)c2)sc2ccc(Cl)cc12 [Example 141, 5-Chloro-3-methyl-N-[3-(1,3-oxazol-5-yl)phenyl]-1-benzothiophene-2-sulfonamide] |  | IC50 ([5]; MCF7, read-out: IC50 based on quantification of F-2,6-P2): 3000 nM
COC(=O)c1cc(NS(=O)(=O)c2sc3ccc(Cl)cc3c2C)ccc1O [Example 140, Methyl 5-{[(5-chloro-3-methyl-1-benzothiophen-2-yl)sulfonyl]amino}-2-hydroxybenzoate] |  | IC50 ([5]; MCF7, cells seeded in the starvation medium containing 25 mM glucose, 25 000 cells/well, read-out: IC50 based on quantification of F-2,6-P2): 1200 nM
O=S(=O)(Nc1cccc(-c2nnn[nH]2)c1)c1ccc(-c2ccccc2)s1 [Example 60, 5-Phenyl-N-[3-(1H-tetrazol-5-yl)phenyl]thiophene-2-sulfonamide] | 1300 nM | 

More lines, main results first:

IC50 [1] | Compound | also measured
1420 nM | O=S(=O)(Nc1cccc(-c2nnn[nH]2)c1)c1ccc(-c2cccc(C(F)(F)F)c2)s1 [Example 99, N-[3-(1H-Tetrazol-5-yl)phenyl]-5-[3-(trifluoromethyl)phenyl]thiophene-2-sulfonamide] | 
2800 nM | O=S(=O)(Nc1cccc(-c2nnn[nH]2)c1)c1ccc(-c2ccc(Cl)c(Cl)c2)cc1 [Example 86, 3′,4′-Dichloro-N-[3-(1H-tetrazol-5-yl)phenyl]biphenyl-4-sulfonamide] | 
3100 nM | O=C(O)c1cccc(NS(=O)(=O)c2cccc(-c3ccccc3)c2)c1 [Example 80, 3-[(Biphenyl-3-ylsulfonyl)amino]benzoic acid] | 
